Measured values as given in ChEMBL document CHEMBL6109094, “Anti-inflammatory agents design via the fragment hybrid strategy in the discovery of compound c1 for treating ALI and UC” (Eur J Med Chem, 2025).
pIC50: −log10 of the molar value. Calls of active or inactive are those of the source. The calls are words filed in the database; no cut-off is given here.

Assays:
RAW264.7 [1] = assay: Anti-inflammatory activity in mouse RAW264.7 cells assessed as inhibition of LPS-induced IL-6 level at 10 uM preincubated for 30 mins followed by LPS addition measured after 24 hrs by ELISA relative to control; assay type: functional; settings: time 24.5 hrs
RAW264.7 [2] = assay: Inhibition of MAPK signalling pathway in mouse RAW264.7 cells assessed as reduction in p38 phosphorylation at 2.5 uM preincubated for 2 hrs followed by LPS addition measured after 30 mins by Western blot analysis; assay type: cell-based; settings: time 2.5 hrs
RAW264.7 [3] = assay: Inhibition of MAPK signalling pathway in mouse RAW264.7 cells assessed as reduction in JNK phosphorylation at 2.5 uM preincubated for 2 hrs followed by LPS addition measured after 30 mins by Western blot analysis; assay type: cell-based; settings: time 2.5 hrs
[4] = biological target: T1, Interleukin-1 receptor-associated kinase 4 (Homo sapiens) (UniProt Q9NWZ3); assay: Inhibition of IRAK4 (unknown origin) at 10 uM relative to control
T1 sequence (whole entry): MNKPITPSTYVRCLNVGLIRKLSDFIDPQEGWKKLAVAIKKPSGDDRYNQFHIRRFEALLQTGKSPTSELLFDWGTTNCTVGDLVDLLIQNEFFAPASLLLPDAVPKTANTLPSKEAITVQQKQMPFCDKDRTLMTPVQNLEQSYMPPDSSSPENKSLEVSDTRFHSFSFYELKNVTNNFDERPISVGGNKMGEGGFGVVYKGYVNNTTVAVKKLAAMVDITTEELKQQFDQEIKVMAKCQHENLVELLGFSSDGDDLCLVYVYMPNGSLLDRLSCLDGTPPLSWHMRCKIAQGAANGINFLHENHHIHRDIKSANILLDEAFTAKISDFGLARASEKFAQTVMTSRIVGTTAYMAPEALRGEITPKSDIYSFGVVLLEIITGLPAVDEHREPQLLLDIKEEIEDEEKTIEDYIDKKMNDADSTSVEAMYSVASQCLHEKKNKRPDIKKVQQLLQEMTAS

[5] = biological target: Interleukin-1 receptor-associated kinase 1 (Homo sapiens) (UniProt P51617); assay: Inhibition of IRAK1 (unknown origin) at 10 uM relative to control
[6] = biological target: Mitogen-activated protein kinase 9 (Homo sapiens) (UniProt P45984); assay: Inhibition of JNK2 (unknown origin) at 10 uM relative to control
[7] = biological target: Mitogen-activated protein kinase 14 (Homo sapiens) (UniProt Q16539); assay: Inhibition of p38-alpha (unknown origin) at 10 uM relative to control
Mus musculus [8] = assay: Anti-inflammatory activity in C57BL/6 mouse model of LPS-induced ALI assessed as inhibition of IL-6 level in BALF at 20 mg/kg, po measured after 6 hrs with administered on every 12 hrs followed by LPS treatment after 30 mins post-compound treatment by ELISA; assay type: functional, organism-based; settings: time 6.5 hrs
Mus musculus [9] = assay: Anti-inflammatory activity in C57BL/6 mouse model of LPS-induced ALI assessed as inhibition of IL-6 level in serum at 20 mg/kg, po measured after 6 hrs with administered on every 12 hrs followed by LPS treatment after 30 mins post-compound treatment by ELISA; assay type: functional, organism-based; settings: time 6.5 hrs
Mus musculus [10] = assay: Anti-inflammatory activity in C57BL/6 mouse model of LPS-induced ALI assessed as decrease in spleen weight at 20 mg/kg, po measured after 6 hrs with administered on every 12 hrs followed by LPS treatment after 30 mins post-compound treatment; assay type: functional, organism-based; settings: time 6.5 hrs
Mus musculus [11] = assay: Anti-inflammatory activity in C57BL/6 mouse model of LPS-induced ALI assessed as decrease in lung wet to dry ratio at 20 mg/kg, po measured after 6 hrs with administered on every 12 hrs followed by LPS treatment after 30 mins post-compound treatment; assay type: functional, organism-based; settings: time 6.5 hrs
Mus musculus [12] = assay: (§1) Anti-inflammatory activity in C57BL/6 mouse model of LPS-induced ALI assessed as decrease in thickening of alveolar septa in lung tissue at 20 mg/kg, po measured after 6 hrs with administered on every 12 hrs followed by LPS treatment after 30 mins post-compound treatment by H and E/IHC staining based analysis; assay type: functional, organism-based; settings: time 6.5 hrs
Mus musculus [13] = assay: as §1, with “interstitial edema” for “alveolar septa”; assay type: functional, organism-based; settings: time 6.5 hrs
Mus musculus [14] = assay: Anti-inflammatory activity in C57BL/6 mouse model of DSS-induced ulcerative colitis assessed as decrease in DAI score at 20 to 40 mg/kg, po administered for 8 days; assay type: functional, organism-based; settings: dose 20-40 mg/kg, time 8.0 day
Mus musculus [15] = assay: Anti-inflammatory activity in C57BL/6 mouse model of DSS-induced ulcerative colitis assessed as colon length at 100 mg/kg, po administered for 8 days (reference value: 5.1 cm); assay type: functional, organism-based; settings: time 8.0 day
Mus musculus [16] = assay: Anti-inflammatory activity in C57BL/6 mouse model of DSS-induced ulcerative colitis assessed as decrease in spleen weight at 20 to 40 mg/kg, po administered for 8 days; assay type: functional, organism-based; settings: dose 20-40 mg/kg, time 8.0 day
Mus musculus [17] = assay: Anti-inflammatory activity in C57BL/6 mouse model of DSS-induced ulcerative colitis assessed as decrease in hyperplasia in white pulp of spleen administered orally for 8 days; assay type: functional, organism-based; settings: dose 20-40 mg/kg, route po, time 8.0 day
Mus musculus [18] = assay: Anti-inflammatory activity in C57BL/6 mouse model of DSS-induced ulcerative colitis assessed as decrease in fusion of white pulp of spleen administered orally for 8 days; assay type: functional, organism-based; settings: dose 20-40 mg/kg, route po, time 8.0 day
Mus musculus [19] = assay: Anti-inflammatory activity in C57BL/6 mouse model of DSS-induced ulcerative colitis assessed as decrease in macrophage population in red pulp of spleen administered orally for 8 days; assay type: functional, organism-based; settings: dose 20-40 mg/kg, route po, time 8.0 day
Mus musculus [20] = assay: Anti-inflammatory activity in C57BL/6 mouse model of DSS-induced ulcerative colitis assessed as decrease in inflammatory cell infiltration in colonic tissue at 20 to 40 mg/kg, po administered for 8 days […]; assay type: functional, organism-based; settings: dose 20-40 mg/kg, time 8.0 day
[21] = Acute toxicity in C57BL/6 mouse assessed as change in physiological state at 100 to 200 mg/kg, po measured for 10 days; assay type: organism-based; settings: in vivo, 240 h, dose 100-200 mg/kg, time 10 day
[22] = Acute toxicity in C57BL/6 mouse assessed as change in daily activities at 100 to 200 mg/kg, po measured for 10 days; assay type: organism-based; settings: in vivo, 240 h, dose 100-200 mg/kg, time 10 day
[23] = AUC (0 to t) in Sprague-Dawley rat at 1 mg/kg, iv measured for 24 hrs; assay type: ADME, organism-based; settings: in vivo
[24] = Tmax in Sprague-Dawley rat at 1 mg/kg, iv measured for 24 hrs; assay type: ADME, organism-based; settings: in vivo
[25] = Half life in Sprague-Dawley rat at 1 mg/kg, iv measured for 24 hrs; assay type: ADME, organism-based; settings: in vivo
[26] = Cmax in Sprague-Dawley rat at 1 mg/kg, iv measured for 24 hrs; assay type: ADME, organism-based; settings: in vivo
[27] = AUC (0 to t) in Sprague-Dawley rat at 10 mg/kg, po measured for 24 hrs; assay type: ADME, organism-based; settings: in vivo
[28] = Tmax in Sprague-Dawley rat at 10 mg/kg, po measured for 24 hrs; assay type: ADME, organism-based; settings: in vivo
RAW264.7 [29] = assay: cells; settings: Mus musculus
Description: Anti-inflammatory activity in mouse RAW264.7 cells assessed as inhibition of LPS-induced IL-6 level preincubated for 30 mins followed by LPS addition measured after 24 hrs by ELISA

RAW264.7 [30] = assay: cells; settings: Mus musculus; remark: listed apart in the source
Description: Anti-inflammatory activity in mouse RAW264.7 cells assessed as inhibition of LPS-induced TNF-alpha level preincubated for 30 mins followed by LPS addition measured after 24 hrs by ELISA

THP-1 = assay: cells; settings: Homo sapiens
Description: Anti-inflammatory activity in human THP-1 cells assessed as inhibition of LPS-induced IL-6 level preincubated for 30 mins followed by LPS addition measured after 24 hrs by ELISA

Mitogen-activated protein kinase 14 (Homo sapiens), sequence (Q16539 whole entry): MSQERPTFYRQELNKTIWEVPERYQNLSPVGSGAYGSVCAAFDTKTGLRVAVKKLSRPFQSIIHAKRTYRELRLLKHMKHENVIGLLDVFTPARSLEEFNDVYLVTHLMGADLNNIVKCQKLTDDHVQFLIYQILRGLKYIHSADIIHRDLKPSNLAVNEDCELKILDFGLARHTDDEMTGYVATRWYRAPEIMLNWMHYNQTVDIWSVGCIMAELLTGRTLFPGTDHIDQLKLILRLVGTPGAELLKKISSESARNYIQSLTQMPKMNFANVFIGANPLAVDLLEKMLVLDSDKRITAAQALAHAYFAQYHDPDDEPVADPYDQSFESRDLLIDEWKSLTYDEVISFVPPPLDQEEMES
Mitogen-activated protein kinase 9 (Homo sapiens), sequence (P45984 whole entry, looked up): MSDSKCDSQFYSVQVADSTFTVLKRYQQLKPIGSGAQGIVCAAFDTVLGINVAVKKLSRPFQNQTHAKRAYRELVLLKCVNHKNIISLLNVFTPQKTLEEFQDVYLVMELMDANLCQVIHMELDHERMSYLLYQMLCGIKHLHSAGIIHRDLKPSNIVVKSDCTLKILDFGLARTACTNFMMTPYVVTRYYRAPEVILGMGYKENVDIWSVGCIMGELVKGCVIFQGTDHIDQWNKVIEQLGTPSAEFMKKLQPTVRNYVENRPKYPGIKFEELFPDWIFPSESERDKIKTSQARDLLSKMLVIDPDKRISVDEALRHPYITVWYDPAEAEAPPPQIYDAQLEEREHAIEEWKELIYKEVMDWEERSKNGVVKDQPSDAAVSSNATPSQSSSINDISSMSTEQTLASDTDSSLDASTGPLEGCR
Interleukin-1 receptor-associated kinase 1 (Homo sapiens), sequence (P51617 whole entry, looked up): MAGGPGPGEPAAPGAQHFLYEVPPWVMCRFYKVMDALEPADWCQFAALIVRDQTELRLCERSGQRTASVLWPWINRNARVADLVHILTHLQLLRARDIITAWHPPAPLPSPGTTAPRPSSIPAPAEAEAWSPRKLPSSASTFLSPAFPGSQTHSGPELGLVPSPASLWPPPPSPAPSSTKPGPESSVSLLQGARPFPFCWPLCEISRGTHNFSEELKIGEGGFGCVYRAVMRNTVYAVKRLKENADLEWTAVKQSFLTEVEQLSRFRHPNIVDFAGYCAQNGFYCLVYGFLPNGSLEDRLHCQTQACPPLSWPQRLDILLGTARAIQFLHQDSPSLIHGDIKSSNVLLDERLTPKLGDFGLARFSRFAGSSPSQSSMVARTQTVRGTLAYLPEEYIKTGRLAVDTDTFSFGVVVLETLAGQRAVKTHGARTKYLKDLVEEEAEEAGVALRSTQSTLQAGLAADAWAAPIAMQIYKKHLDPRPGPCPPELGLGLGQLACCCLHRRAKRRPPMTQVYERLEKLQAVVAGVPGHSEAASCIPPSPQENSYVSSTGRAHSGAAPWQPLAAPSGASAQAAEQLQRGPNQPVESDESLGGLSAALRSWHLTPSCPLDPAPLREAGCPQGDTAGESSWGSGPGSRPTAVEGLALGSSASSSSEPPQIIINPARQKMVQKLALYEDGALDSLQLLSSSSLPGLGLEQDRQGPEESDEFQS

## COc1cc2c(O[C@H]3CC[C@@H](N)CC3)ncnc2cc1OCc1cccc(Br)c1
RAW264.7 [1]
  inhibition at 10 µM: 73.6%
RAW264.7 [2]
  inhibition: Active
RAW264.7 [3]
  inhibition: Active
[4]
  inhibition: 100%
[5]
  inhibition: 88.2%
[6]
  inhibition: 2.49%
[7]
  inhibition: 31.4%
Mus musculus [8]
  inhibition: Active
Mus musculus [9]
  inhibition: Active
Mus musculus [10]
  Activity: Active
Mus musculus [11]
  Activity: Active
Mus musculus [12]
  Activity: Active
Mus musculus [13]
  Activity: Active
Mus musculus [14]
  Activity: Active
Mus musculus [15]
  Activity: Active
Mus musculus [16]
  Activity: Active; Activity Was Comparable To 5-Asa
Mus musculus [17]
  Activity: Dose-dependent-effect
Mus musculus [18]
  Activity: Dose-dependent-effect
Mus musculus [19]
  Activity: Dose-dependent-effect
Mus musculus [20]
  Activity: Active
[21]
  Activity: Non-toxic
[22]
  Activity: Non-toxic
[23]
  AUC(0-t) at 24 h: 7730 ng·h/mL
[24]
  Tmax: 4.8 min
[25]
  half-life: 1.77 h
[26]
  Cmax: 7280 ng/mL
[27]
  AUC(0-t) at 24 h: 4270 ng·h/mL
[28]
  Tmax: 2 h
RAW264.7 [29]
  pIC50: 6.32
RAW264.7 [30]
  pIC50: 5.82
THP-1
  pIC50: 6.02
